In the supplement of paper PMC11208160:

Test: recombinant barcode read abundance after kanamycin selection (control-corrected) (log10(CPM+1)); higher = more efficient recombination; sequences stand for … in AGTGCAGAGAAAATCGGCCAGTTTTCTCTGCCTGCAGTCCGCATGCCGT…AGATTTATGCAGCGGACTGCCTTTCTCCCAAAGTGATAAACCGGACAGTATCATGGACCGGTTTTCCCGGTAATCCGTATTTGCAAGGTTGGTTTCACT; site = the 11-nt target
Method in brief: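 Targets were screened in pooled form in E. coli against IS621 bridge RNA target-binding loops. Recombination efficiency is based on barcode counts at recombinant junctions in counts per million, averaged and corrected for the control. Numbers are shown as log10(CPM+1), with duplicate plates on chloramphenicol/ampicillin LB agar (control) or chloramphenicol/ampicillin/kanamycin with 0.1 mM IPTG.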
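Note: IS621 recombinase and bridge RNA in Escherichia coli cells.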

“GTTCCTACTTGGGTTCTAACCTGTTGCCT (site GTTCCTACTAG)” and “GTTGCCACTTGGGTTCTAACCTGTTGCCT (site GTAGCCACTAG)” are within 0.2 log units of each other in “recombinant barcode read abundance (log10)” value: 0.328 for the first, 0.137 for the second.

“GTTGCCACTTGGGTTCTAACCTGTTGCCT (site GTCGCCACTAG)” and “GTTGCCACTTGGGTTCTAACCTGTTGCCT (site GTGGCCACTAG)” are within 0.2 log units of each other in “recombinant barcode read abundance (log10)” value: 0.0124 for the first, 0.0918 for the second.

Compared with “GTTGCCACTTGGGTTCTAACCTGTTGCCT (site GTTGCCACTAG)”, “GTTGGAACTTGGGTTCTAACCTGTTGCGT (site GTTGGAACTAC)” is higher in “recombinant barcode read abundance (log10)” value: 0.411 for the first, 2.05 for the second.

“GTTGGAACTTGGGTTCTAACCTGTTGCGT (site GTTGGGACTAG)” and “GTTGGCGCTTGGGTTCTAACCTGTTGCCT (site GTAGGCGCTAG)” are within 0.2 log units of each other in “recombinant barcode read abundance (log10)” value: 0.312 for the first, 0.276 for the second.

“GTTGGCGCTTGGGTTCTAACCTGTTGCCT (site GTCGGCGCTAG)” and “GTTGGCGCTTGGGTTCTAACCTGTTGCCT (site GTGGGCGCTAG)” are within 0.2 log units of each other in “recombinant barcode read abundance (log10)” value: 0.125 for the first, 0.0363 for the second.

Going from “GTTGGCGCTTGGGTTCTAACCTGTTGCCT (site GTTGGCGCTAG)” to “GTTGGGGCTTGGGTTCTAACCTGTTGCCT (site GTGGTGGCTAG)”, the “recombinant barcode read abundance (log10)” value falls from 0.841 to 0.254.

Compared with “GTTGGGGCTTGGGTTCTAACCTGTTGCCT (site GTTGGGGCTAG)”, “GTTTAATCTTGGGTTCTAACCTGTTGCAT (site GTTTAATCTAT)” is lower in “recombinant barcode read abundance (log10)” value: 0.634 for the first, 0.343 for the second.

“GTTTAATCTTGGGTTCTAACCTGTTGCAT (site TGGGTCACTTA)” and “GTTTGGACTTGGGTTCTAACCTGTTGCAG (site GCTTGGACTAT)” are within 0.2 log units of each other in “recombinant barcode read abundance (log10)” value: 0.0197 for the first, 0.153 for the second.

“GTTTGGACTTGGGTTCTAACCTGTTGCAG (site GTTTGGACTCT)” and “GTTTGGACTTGGGTTCTAACCTGTTGCTG (site GTTTGGACTCA)” are within 0.2 log units of each other in “recombinant barcode read abundance (log10)” value: 1.11 for the first, 1.06 for the second.

“GTTTGGACTTGGGTTCTAACCTGTTGCTG (site GTTTGGACTTA)” and “TAAAAGACTTGGGTTCTAACCTGTTGCCT (site TAAAAGACTAG)” are within 0.2 log units of each other in “recombinant barcode read abundance (log10)” value: 0.195 for the first, 0.307 for the second.

First: TAAAAGACTTGGGTTCTAACCTGTTGCCT (site TAAAAGCCTAG)
Second: TAAAAGACTTGGGTTCTAACCTGTTGCCT (site TAAAAGGCTAG)
The “recombinant barcode read abundance (log10)” value of the first is lower: 0.0498 for the first, 0.311 for the second.

“TAAAAGACTTGGGTTCTAACCTGTTGCCT (site TAAAAGTCTAG)” and “TAAAAGTCTTGGGTTCTAACCTGTTGCCT (site TAAAAGACTAG)” are within 0.2 log units of each other in “recombinant barcode read abundance (log10)” value: 0.178 for the first, 0.108 for the second.

“TAAAAGTCTTGGGTTCTAACCTGTTGCCT (site TAAAAGCCTAG)” and “TAAAAGTCTTGGGTTCTAACCTGTTGCCT (site TAAAAGGCTAG)” are within 0.2 log units of each other in “recombinant barcode read abundance (log10)” value: 0.0186 for the first, 0.0795 for the second.

Compared with “TAAAAGTCTTGGGTTCTAACCTGTTGCCT (site TAAAAGTCTAG)”, “TAAAGTACTTGGGTTCTAACCTGTTGCTT (site TAAAGTACTAA)” is lower in “recombinant barcode read abundance (log10)” value: 0.696 for the first, 0.467 for the second.

“TAAAGTACTTGGGTTCTAACCTGTTGCTT (site TAACGTACTAA)” and “TAAAGTACTTGGGTTCTAACCTGTTGCTT (site TAAGGTACTAA)” are within 0.2 log units of each other in “recombinant barcode read abundance (log10)” value: 0.0583 for the first, 0.017 for the second.

Compared with “TAAAGTACTTGGGTTCTAACCTGTTGCTT (site TAATGTACTAA)”, “TAACACTCTTGGGTTCTAACCTGTTGCCT (site TAACACTCTAG)” is higher in “recombinant barcode read abundance (log10)” value: 0.0546 for the first, 2 for the second.

Compared with “TAACACTCTTGGGTTCTAACCTGTTGCCT (site TCACAGTCTAG)”, “TAACAGTCTTGGGTTCTAACCTGTTGCGT (site TAACAGTCTAC)” is higher in “recombinant barcode read abundance (log10)” value: 0.19 for the first, 2.85 for the second.

“TAACAGTCTTGGGTTCTAACCTGTTGCGT (site TAACCGTCTAT)” and “TAACCGTCTTGGGTTCTAACCTGTTGCAT (site TAACAGTCTAC)” are within 0.2 log units of each other in “recombinant barcode read abundance (log10)” value: 0.246 for the first, 0.179 for the second.

“TAACCGTCTTGGGTTCTAACCTGTTGCAT (site TAACCGTCTAT)” and “TAACCTACTTGGGTTCTAACCTGTTGCCT (site TAACCTACTAG)” are within 0.2 log units of each other in “recombinant barcode read abundance (log10)” value: 0.286 for the first, 0.442 for the second.

“TAACCTACTTGGGTTCTAACCTGTTGCCT (site TAACCTCCTAG)” and “TAACCTACTTGGGTTCTAACCTGTTGCCT (site TAACCTGCTAG)” are within 0.2 log units of each other in “recombinant barcode read abundance (log10)” value: 0.055 for the first, 0.0455 for the second.

“TAACCTACTTGGGTTCTAACCTGTTGCCT (site TAACCTTCTAG)” and “TAACCTACTTGGGTTCTAACCTGTTGCTA (site GGTGAGGCTAT)” are within 0.2 log units of each other in “recombinant barcode read abundance (log10)” value: 0.0774 for the first, 0.0991 for the second.

With “TAACCTACTTGGGTTCTAACCTGTTGCTA (site TAACCTACTTA)” the “recombinant barcode read abundance (log10)” value was 0.864.
